Experimental findings from patent publication US20100190768A1, “NOVEL FUSED PYROLE DERIVATIVE” (Dainippon Sumitomo Pharma Co., Ltd., priority 2005, published 2010) are described below.

The target in one assay is T1, human GRα protein (Homo sapiens, UniProt P04150).
T1 construct: made in house; host or cells: insect cells infected with baculovirus; cytoplasm fraction used
T1 sequence (P04150 1-777): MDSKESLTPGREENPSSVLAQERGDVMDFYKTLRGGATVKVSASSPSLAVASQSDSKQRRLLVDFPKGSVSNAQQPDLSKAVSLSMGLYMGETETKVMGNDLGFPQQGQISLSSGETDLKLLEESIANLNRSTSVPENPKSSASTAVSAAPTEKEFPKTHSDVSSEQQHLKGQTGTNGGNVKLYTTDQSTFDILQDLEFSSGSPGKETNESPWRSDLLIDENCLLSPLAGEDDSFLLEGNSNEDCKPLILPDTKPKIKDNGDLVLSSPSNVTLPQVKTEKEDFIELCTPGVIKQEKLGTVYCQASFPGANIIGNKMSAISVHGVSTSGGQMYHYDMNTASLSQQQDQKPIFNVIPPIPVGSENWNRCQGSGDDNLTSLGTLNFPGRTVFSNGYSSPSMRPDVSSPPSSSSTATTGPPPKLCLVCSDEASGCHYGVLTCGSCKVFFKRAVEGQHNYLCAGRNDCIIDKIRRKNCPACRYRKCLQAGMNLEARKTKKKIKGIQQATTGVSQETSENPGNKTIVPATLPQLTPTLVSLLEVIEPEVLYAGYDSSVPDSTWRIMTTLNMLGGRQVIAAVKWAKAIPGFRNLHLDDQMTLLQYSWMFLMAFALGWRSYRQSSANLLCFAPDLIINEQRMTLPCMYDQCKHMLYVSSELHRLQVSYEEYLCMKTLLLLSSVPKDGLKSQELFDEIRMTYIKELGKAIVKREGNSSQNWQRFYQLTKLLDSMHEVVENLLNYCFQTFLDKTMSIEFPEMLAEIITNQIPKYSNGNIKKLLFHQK
As to the kind of experiment: Binding inhibitory assay (displacement of 3H-dexamethasone from the cytoplasm fraction of baculovirus-infected insect cells). The note with it: 3H-Dex, NSB with 10 μM dexamethasone; for inhibition at 0.1 µM: 100 nM test compound, read-out: Binding Inhibitory ratio (%) of 100 nM of test compound. An outline of the steps: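 Cytosol from baculovirus-infected insect cells expressing human GRα incubated with compound and 10 nM ³H-dexamethasone solution in Tris/EDTA/glycerol/DTT/molybdate buffer, pH 7.6, 1% DMSO, 16–20 h at 4 °C. Free ligand removed with dextran-coated charcoal, supernatant counted; NSB from 10 μM dexamethasone, inhibition % vs DMSO, duplicates.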
(Displacement assays read how much labelled ligand stays bound in the presence of the test substance.)

In a further assay the test system is H4-III-E cells. As to the kind of experiment: TAT (tyrosine aminotransferase) assay. In kind it is cell-based. The note with it: for Agonistic activity of 10 μM test compound / activation at 10 µM: 10 μM test compound alone, relative to maximum Dex-induced TAT activity (100%); for Antagonistic activity of 10 μM test compound: 10 μM test compound together with 0.005 μM dexamethasone, inhibitory ratio against TAT activity increase by Dex; for activation at 10 µM: read-out: Agonistic activity of 10 μM test compound. An outline of the steps:
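Rat hepatoma H4-III-E cells were treated overnight with compound, either alone for agonism or together with 0.005 μM dexamethasone for antagonism. TAT activity in lysates was read at 331 nm after reaction at 37 °C. Activity was expressed as % of the dexamethasone response, or as % inhibition of the dexamethasone-induced increase, and scored at a 10% cutoff.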

The structures appear in SMILES notation. Where only a bound is given, the exact number is not on record here.

Consider `CCOC(=O)CCCNCC(O)(c1cn(Cc2ccccc2)c2cc([N+](=O)[O-])ccc12)C(F)(F)F` (stereo not drawn) [Example 169, Ethyl 4-{[2-(1-benzyl-6-nitro-1H-indol-3-yl)-3,3,3-trifluoro-2-hydroxypropyl]-amino}butanoate], for which, at human GRα protein, the inhibition at 0.1 µM turned out to be 99%. For the same compound, in the assay with H4-III-E cells, the “Agonistic activity of 10 μM test compound” value is “◯” and the “Antagonistic activity of 10 μM test compound” value (“Antagonistic activity” below) is “◯”.
`COc1cc(CC(=O)O)ccc1OC1CCN(CC(O)(c2cn(Cc3ccncc3)c3cc(C#N)ccc23)C(F)(F)F)CC1` (stereo not drawn) [Example 235, {4-[(1-{2-[6-Cyano-1-(pyridin-4-ylmethyl)-1H-indol-3-yl]-3,3,3-trifluoro-2-hydroxypropyl}piperidin-4-yl)oxy]-3-methoxyphenyl}acetic acid]: at human GRα protein, the inhibition at 0.1 µM amounted to 79%. In addition, in the assay on H4-III-E cells, the activation at 10 µM is less than 10% and the “Antagonistic activity” value is listed as “◯”.
Regarding `CCOC(=O)C(O)(c1cn(Cc2ccccc2)c2c([N+](=O)[O-])cccc12)C(F)(F)F` (stereo not drawn) [Example 21, Ethyl 2-(1-benzyl-7-nitro-1H-indol-3-yl)-3,3,3-trifluoro-2-hydroxypropanoate], the “Binding Inhibitory ratio (%) of test compound (1 μM)” value on human GRα protein (1 μM test compound) was determined as 79%. Further, in the assay on H4-III-E cells, the activation at 10 µM is less than 10% and the “Antagonistic activity” value is recorded as “◯”.
With `COc1cccc(N2CCN(CC(O)(c3cn(Cc4ccccc4)c4cc([N+](=O)[O-])ccc34)C(F)(F)F)CC2)c1` (stereo not drawn) [Example 144, 2-(1-Benzyl-6-nitro-1H-indol-3-yl)-1,1,1-trifluoro-3-[4-(3-methoxyphenyl)-piperazin-1-yl]propan-2-ol], the inhibition at 0.1 µM at human GRα protein amounted to 97%. Also, in the assay with H4-III-E cells, the “Agonistic activity of 10 μM test compound” value is listed as “◯” and the “Antagonistic activity” value is “◯”.
With `O=C(c1cccs1)C1CCN(CC(O)(c2cn(Cc3ccccc3)c3cc([N+](=O)[O-])ccc23)C(F)(F)F)CC1` (stereo not drawn) [Example 194, {1-[2-(1-Benzyl-6-nitro-1H-indol-3-yl)-3,3,3-trifluoro-2-hydroxypropyl]piperidin-4-yl}(2-thienyl)methanone], on human GRα protein, the inhibition at 0.1 µM was 94%. In the assay on H4-III-E cells, the “Agonistic activity of 10 μM test compound” value is listed as “◯” and the “Antagonistic activity” value is given as “◯”.
In the case of `O=[N+]([O-])c1ccc2c(C(O)(CN3CCC(Oc4ccc(F)cc4)CC3)C(F)(F)F)cn(Cc3ccccc3)c2c1` (stereo not drawn) [Example 77, 2-(1-Benzyl-6-nitro-1H-indol-3-yl)-1,1,1-trifluoro-3-[4-(4-fluorophenoxy)-piperidin-1-yl]propan-2-ol], the inhibition at 0.1 µM at human GRα protein is 92%. In the assay with H4-III-E cells, the “Agonistic activity of 10 μM test compound” value was “◯” and the “Antagonistic activity” value was “◯”.
`O=[N+]([O-])c1ccc2c(C(O)(CN3CCN(S(=O)(=O)c4ccccc4)CC3)C(F)(F)F)cn(Cc3ccccc3)c2c1` (stereo not drawn) [Example 112, 2-(1-Benzyl-6-nitro-1H-indol-3-yl)-1,1,1-trifluoro-3-[4-(phenylsulfonyl)piperazin-1-yl]propan-2-ol]: the inhibition at 0.1 µM on human GRα protein is 98%. Further, in the assay on H4-III-E cells, the activation at 10 µM was less than 10% and the “Antagonistic activity” value was “◯”.
As to `CCOC(=O)Cc1ccc(OC2CCN(CC(O)(c3cn(Cc4ccccc4)c4cc([N+](=O)[O-])ccc34)C(F)(F)F)CC2)c(OC)c1` (stereo not drawn) [Example 200, Ethyl[4-({1-[2-(1-benzyl-6-nitro-1H-indol-3-yl)-3,3,3-trifluoro-2-hydroxypropyl]-piperidin-4-yl}oxy)-3-methoxyphenyl]acetate], the inhibition at 0.1 µM at human GRα protein was determined as 88%. In the assay on H4-III-E cells, the “Agonistic activity of 10 μM test compound” value was “◯” and the “Antagonistic activity” value was “◯”.
